According to article PMC11722180, “Structure–Activity Relationship Studies of Tetracyclic Pyrrolocarbazoles Inhibiting Heterotetrameric Protein Kinase CK2” (Molecules, 2024):
Counter-ions that a name gives are not always drawn.

What was measured:
[1] = target: T1, CK2α/CK2β interaction (human CK2α1–335, human CK2β1–193) (Homo sapiens, UniProt P68400); experiment: Microscale thermophoresis (MST) assay of the CK2α/CK2β subunit interaction; type: binding; conditions: for Inhibition of CK2α/CK2β Interaction Ki / Ki: MST, global analysis, KD′ = KD [1 + (ccompound/Ki)], n.s. = KD′ not significantly different from KD; for Ki: read-out: Inhibition of CK2α/CK2β Interaction Ki
T1 construct: human CK2α^1–335; made in house
T1 sequence (P68400 1-335): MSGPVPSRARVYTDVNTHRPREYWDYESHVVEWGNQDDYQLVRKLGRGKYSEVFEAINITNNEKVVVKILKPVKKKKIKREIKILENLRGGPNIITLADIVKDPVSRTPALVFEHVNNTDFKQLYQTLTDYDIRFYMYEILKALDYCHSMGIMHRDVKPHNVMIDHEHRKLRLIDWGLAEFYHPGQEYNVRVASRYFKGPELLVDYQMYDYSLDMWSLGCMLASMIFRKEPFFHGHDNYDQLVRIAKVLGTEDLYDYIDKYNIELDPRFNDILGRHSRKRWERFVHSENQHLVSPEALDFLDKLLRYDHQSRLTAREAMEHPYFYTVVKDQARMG
Method: A microscale thermophoresis (MST) assay was used to determine the interaction of the CK2α and CK2β subunits. In this assay, a constant concentration of the fluorescently labeled CK2β subunit was added to increasing concentrations of the CK2α subunit and the thermophoretic shift was recorded, respectively. […] The same experiment was performed in the presence of 20, 50, or 100 µM of the test compounds (see Table 1). An increased KD′ value in the presence of the test compounds was evaluated as the inhibition of the association of the CK2α and CK2β subunits. The increased KD′ value was then transformed together with the employed concentration of the test compound into the Ki value for the inhibition of the CK2α/CK2β association (formula see Supporting Information).
The compounds were investigated at a final concentration of 20, 50, or 100 µM. […] Data analysis and statistical evaluation were conducted with GraphPad Prism v.6 for Windows (GraphPad Software, La Jolla, CA, USA, www.graphpad.com).

CK2 = conditions: cited from earlier work

Compound | Kd [1] | Inhibition of CK2α/CK2β Interaction Ki [1] | Ki [1] | also measured
CCOC(=O)[C@@H]1c2[nH]c3ccccc3c2[C@@H](c2cc(OC)c(OC)c(OC)c2)[C@H]2C(=O)N(C)C(=O)[C@H]21 (racemic) [(±)-9b, Ethyl (3aRS,4SR,10RS,10aRS)-2-methyl-1,3-dioxo-10-(3,4,5-trimethoxyphenyl)-1,2,3,3a,4,5,10,10a-octahydropyrrolo[3,4-b]carbazole-4-carboxylate] | 14 ± 6 nM | n.s. | – | –
COc1cc([C@@H]2c3c([nH]c4ccccc34)[C@@H](C(=O)Nc3nc4ccccc4[nH]3)[C@@H]3C(=O)NC(=O)[C@H]23)cc(OC)c1OC (racemic) [(±)-17, (3aRS,4SR,10RS,10aRS)-N-(1H-Benzimidazol-2-yl)-1,3-dioxo-10-(3,4,5-trimethoxyphenyl)-1,2,3,3a,4,5,10,10a-octahydropyrrolo[3,4-b]carbazole-4-carboxamide] | 93 ± 13 nM | – | 7100 nM | –
COc1cc([C@@H]2c3c([nH]c4ccccc34)[C@@H](C(=O)N3CCCCC3)[C@@H]3C(=O)NC(=O)[C@H]23)cc(OC)c1OC (racemic) [(±)-16, (3aRS,4SR,10RS,10aRS)-4-[(Piperidin-1-yl)carbonyl]-10-(3,4,5-trimethoxyphenyl)-4,5,10,10a-tetrahydropyrrolo[3,4-b]carbazole-1,3(2H,3aH)-dione] | 72 ± 12 nM | – | 9700 nM | –
NCc1cc(Cl)cc(-c2cccc3[nH]ccc23)c1 [CAM187] | – | – | – | Effect on kinase activity of CK2 (CK2): not significantly affected
CCOC(=O)[C@@H]1c2[nH]c3ccccc3c2[C@@H](c2ccc(NC(=O)c3ccc(OC)cc3)cc2)[C@H]2C(=O)N(Cc3ccccc3)C(=O)[C@H]21 (racemic) [(±)-23, Ethyl (3aRS,4SR,10RS,10aRS)-2-benzyl-10-[4-(4-methoxybenzamido)phenyl]-1,3-dioxo-1,2,3,3a,4,5,10,10a-octahydropyrrolo[3,4-b]carbazole-4-carboxylate] | 24 ± 9 nM | n.s. | – | Inhibition of CK2α/CK2β Interaction Ki ([1]; listed as 23): did not result in a significant inhibition
CNC(=O)[C@@H]1c2[nH]c3ccccc3c2[C@@H](c2cc(OC)c(OC)c(OC)c2)[C@H]2C(=O)NC(=O)[C@H]21 (racemic) [(±)-11, (3aRS,4SR,10RS,10aRS)-N-Methyl-1,3-dioxo-10-(3,4,5-trimethoxyphenyl)-1,2,3,3a,4,5,10,10a-octahydropyrrolo[3,4-b]carbazole-4-carboxamide] | 132 ± 43 nM | – | 6000 nM | –
COc1cc([C@@H]2c3c([nH]c4ccccc34)[C@@H](C(=O)NCc3ccccc3)[C@@H]3C(=O)NC(=O)[C@H]23)cc(OC)c1OC (racemic) [(±)-12, (3aRS,4SR,10RS,10aRS)-N-Benzyl-1,3-dioxo-10-(3,4,5-trimethoxyphenyl)-1,2,3,3a,4,5,10,10a-octahydropyrrolo[3,4-b]carbazole-4-carboxamide] | 62 ± 19 nM | – | 14000 nM | –
CCOC(=O)[C@H]1c2[nH]c3ccccc3c2[C@H](c2ccc(N)cc2)[C@@H]2C(=O)N(Cc3ccccc3)C(=O)[C@@H]21 (racemic) [(±)-22c, Ethyl (3aRS,4SR,10RS,10aRS)-10-(4-aminophenyl)-2-benzyl-1,3-dioxo-1,2,3,3a,4,5,10,10a-octahydropyrrolo[3,4-b]carbazole-4-carboxylate∙HCl] | 25 ± 15 nM | n.s. | – | Inhibition of CK2α/CK2β Interaction Ki ([1]; listed as 22c): did not result in a significant inhibition
COc1cc([C@@H]2c3c([nH]c4ccccc34)[C@@H](C(=O)Nc3cccnc3)[C@@H]3C(=O)NC(=O)[C@H]23)cc(OC)c1OC (racemic) [(±)-15, (3aRS,4SR,10RS,10aRS)-1,3-Dioxo-N-(pyridin-3-yl)-10-(3,4,5-trimethoxyphenyl)-1,2,3,3a,4,5,10,10a-octahydropyrrolo[3,4-b]carbazole-4-carboxamide] | 89 ± 13 nM | – | 7400 nM | –
COC(=O)[C@H](CO)NC(=O)[C@H]1c2[nH]c3ccccc3c2[C@H](c2cc(OC)c(OC)c(OC)c2)[C@@H]2C(=O)NC(=O)[C@@H]21 [(+)-18a, Methyl N-{[(3aS,4R,10S,10aS)-1,3-dioxo-10-(3,4,5-trimethoxyphenyl)-1,2,3,3a,4,5,10,10a-octahydropyrrolo[3,4-b]carbazol-4-yl]carbonyl}-(S)-serinate] | 72 ± 2 nM | – | 9100 nM | –
COc1cc([C@@H]2c3c([nH]c4ccccc34)[C@@H](C(=O)NCc3ccc(Cl)cc3)[C@@H]3C(=O)NC(=O)[C@H]23)cc(OC)c1OC (racemic) [(±)-13, (3aRS,4SR,10RS,10aRS)-N-(4-Chlorobenzyl)-1,3-dioxo-10-(3,4,5-trimethoxyphenyl)-1,2,3,3a,4,5,10,10a-octahydropyrrolo[3,4-b]carbazole-4-carboxamide] | 17 ± 3 nM | n.s. | – | –
Cc1ccc(N/C=C2\C(=O)CCc3c2oc2c(Cl)c(Cl)c(O)cc32)cc1 [2a] | – | – | – | IC50 (CK2; ATP competitive, read-out: CK2 inhibition IC50): 29 nM
COc1cc([C@@H]2c3c([nH]c4ccccc34)[C@@H](C(=O)O)[C@@H]3C(=O)NC(=O)[C@H]23)cc(OC)c1OC (racemic) [(±)-10, (3aRS,4SR,10RS,10aRS)-1,3-Dioxo-10-(3,4,5-trimethoxyphenyl)-1,2,3,3a,4,5,10,10a-octahydropyrrolo[3,4-b]carbazole-4-carboxylic acid] | 758 ± 338 nM | – | 1900 nM | –
COC(=O)[C@H](Cc1c[nH]cn1)NC(=O)[C@@H]1c2[nH]c3ccccc3c2[C@@H](c2cc(OC)c(OC)c(OC)c2)[C@H]2C(=O)NC(=O)[C@H]21 [(–)-20b, methyl N-{[(3aR,4S,10R,10aR)-1,3-dioxo-10-(3,4,5-trimethoxyphenyl)-1,2,3,3a,4,5,10,10a-octahydropyrrolo[3,4-b]carbazol-4-yl]carbonyl}-(S)-histidinate] | 29 ± 7 nM | n.s. | – | –
CCOC(=O)[C@@H]1c2[nH]c3ccccc3c2[C@@H](c2ccc([N+](=O)[O-])cc2)[C@H]2C(=O)NC(=O)[C@H]21 (racemic) [(±)-21a, Ethyl (3aRS,4SR,10RS,10aRS)-10-(4-nitrophenyl)-1,3-dioxo-1,2,3,3a,4,5,10,10a-octahydropyrrolo[3,4-b]carbazole-4-carboxylate] | 20 ± 10 nM | n.s. | – | –
CCOC(=O)[C@H]1c2[nH]c3ccccc3c2[C@H](c2cc(OC)c(OC)c(OC)c2)[C@@H]2C(=O)NC(=O)[C@@H]21 (racemic) [(±)-9a, Ethyl (3aRS,4SR,10RS,10aRS)-1,3-dioxo-10-(3,4,5-trimethoxyphenyl9a)-1,2,3,3a,4,5,10,10a-octahydropyrrolo[3,4-b]carbazole-4-carboxylate] | 59 ± 25 nM | – | 32000 nM | –
COC(=O)[C@H](CCSC)NC(=O)[C@@H]1c2[nH]c3ccccc3c2[C@@H](c2cc(OC)c(OC)c(OC)c2)[C@H]2C(=O)NC(=O)[C@H]21 [(–)-19b, Methyl N-{[(3aR,4S,10R,10aR)-1,3-dioxo-10-(3,4,5-trimethoxyphenyl)-1,2,3,3a,4,5,10,10a-octahydropyrrolo[3,4-b]carbazol-4-yl]carbonyl}-(S)-methioninate] | 94 ± 24 nM | – | 7700 nM | –
CCOC(=O)[C@H]1c2[nH]c3ccccc3c2[C@H](c2ccc(N)cc2)[C@@H]2C(=O)NC(=O)[C@@H]21 (racemic) [(±)-22a, Ethyl (3aRS,4SR,10RS,10aRS)-10-(4-aminophenyl)-1,3-dioxo-1,2,3,3a,4,5,10,10a-octahydropyrrolo[3,4-b]carbazole-4-carboxylate∙HCl] | 31 ± 11 nM | n.s. | – | –
COc1cc([C@@H]2c3c([nH]c4ccccc34)[C@@H](C(=O)NCCc3c[nH]c4ccccc34)[C@@H]3C(=O)NC(=O)[C@H]23)cc(OC)c1OC (racemic) [(±)-14, (3aRS,4SR,10RS,10aRS)-N-[2-(Indol-3-yl)ethyl]-1,3-dioxo-10-(3,4,5-trimethoxyphenyl)-1,2,3,3a,4,5,10,10a-octahydropyrrolo[3,4-b]carbazole-4-carboxamide] | 158 ± 17 nM | – | 3800 nM | –
